From patent US20230043678A1, “USE OF 5-METHYLTETRAHYDROFOLATE” (priority 2019, published 2023)

Tested on: fetal rat heart
Assay: Effect of folic acid on fetal rat heart under pharmacological dose (Example 9)
Format: in vivo, rats
Method: In order to investigate an effect of folic acid on fetal rat heart under pharmacological dose, 6 folic acid groups and a blank control group were divided in the experiment, the folic acid groups were divided into a folic acid group 1 (4.555 mg/kg/d), a folic acid group 2 (2.2775 mg/kg/d), a folic acid group 3 (0.911 mg/kg/d), a folic acid group 4 (0.4555 mg/kg/d), a folic acid group 5 (0.22775 mg/kg/d) and a folic acid group 6 (0.113875 mg/kg/d). The folic acid groups and the blank control group consisted of 4 pregnant mice each. The pregnant mice in the folic acid group 1 (4.555 mg/kg/d), the folic acid group 2 (2.2775 mg/kg/d) and the folic acid group 3 (0.911 mg/kg/d) were intraperitoneally injected, the pregnant mice in the folic acid group 4 (0.4555 mg/kg/d), the folic acid group 5 (0.22775 mg/kg/d) and the folic acid group 6 (0.113875 mg/kg/d) were intragastrically administrated, and the pregnant mice in the blank control group were naturally fed. After the female rats were administrated for 7 days, male and female rats were mated in a cage at a ratio of 1:1 overnight, a vaginal plug was checked the next morning, a day when the vaginal plug was found was regarded as day 0 of pregnancy, the pregnant mice were separately fed and administrated for 21 consecutive days, a fetus was obtained by cesarean section, and the number of fetal rats in each group was shown in FIG. 30. Fetal rat hearts were taken for a pathological examination and the results were as follows.

[1] = Group 1: folic acid 4.555 mg/kg/d intraperitoneal
[2] = Group 2: folic acid 2.2775 mg/kg/d intraperitoneal
[3] = Group 3: folic acid 0.911 mg/kg/d intraperitoneal
[4] = Group 4: folic acid 0.4555 mg/kg/d intragastric
[5] = Group 5: folic acid 0.22775 mg/kg/d intragastric
[6] = Group 6: folic acid 0.113875 mg/kg
[7] = Group 6: folic acid 0.113875 mg/kg/d intragastric

**Q.** Which results are given for `Nc1nc2ncc(CNc3ccc(C(=O)N[C@@H](CCC(=O)O)C(=O)O)cc3)nc2c(=O)[nH]1` [FA, pteroylglutamic acid]?
**A.** Atrioventricular defects/septal defects [1]: 3; Development delay [1]: 1; Malformation cases [1]: 4; Malformation rate [1]: 12.9%; Sparse myocardial trabeculae [1]: 0; Atrioventricular defects/septal defects [2]: 2; Development delay [2]: 2; Malformation cases [2]: 4; Malformation rate [2]: 12.1%; Sparse myocardial trabeculae [2]: 0; Atrioventricular defects/septal defects [3]: 1; Development delay [3]: 2; Malformation cases [3]: 3; Malformation rate [3]: 11.5%; Sparse myocardial trabeculae [3]: 0; Atrioventricular defects/septal defects [4]: 5; Development delay [4]: 0; Malformation cases [4]: 5; Malformation rate [4]: 17.2%; Sparse myocardial trabeculae [4]: 0; Atrioventricular defects/septal defects [5]: 5; Development delay [5]: 0; Malformation cases [5]: 5; Malformation rate [5]: 15.2%; Sparse myocardial trabeculae [5]: 0; atrial walls defective (number of individuals) [6]: 1; ventricular septal defects (number of individuals) [6]: 3; Atrioventricular defects/septal defects [7]: 4; Development delay [7]: 1; Malformation cases [7]: 4; Malformation rate [7]: 9.5%; Sparse myocardial trabeculae [7]: 0
